Data: patent US20130130238A1, “Fluorimetric Process for Evaluating the Influence of A Condition on A Biological Sample and Applications Thereof” (NOVALEADS, priority 2008, published 2013)

Tests used:
Type in all cases: cell-based
[1] = tested on: HeLa cells; assay: Kinetic profile of SYTO62 fluorescence under continuous illumination, HeLa cells treated with anticancer agent; conditions: 0.1 μM and 1 μM, 24 hours, 10 μM SYTO62, illumination 50 seconds at 488 nm
Protocol: The intensity of fluorescence is then measured every second. Each intensity value is then expressed as a percentage of the first fluorescence value measured. (IF: intensity of fluorescence; T: illumination time). HeLa cells (Sigma-Aldrich) are plated into a 96-well format transparent-bottomed black microplate at 20000 cells per well the day before the experiment. […] The intensity of fluorescence emitted by the biosensor is then measured every second.

[2] = tested on: HeLa cells; assay: Kinetic profile of SYTO62 fluorescence under continuous illumination, HeLa cells treated with apoptotic agent; conditions: 7 hours, 10 μM SYTO62, illumination 40 seconds at 488 nm
Protocol: HeLa cells were treated for 7 hours with (Δ, □, ⋄) or without (∘) 0.1 μM (Δ), 0.5 μM (□) and 1 μM (⋄) staurosporine. The cells were then labelled with a 10 μM solution of SYTO62 then subjected to continuous illumination for 40 seconds. The intensity of fluorescence is then measured every second. Each intensity value is then expressed as a percentage of the first fluorescence value measured. (IF: intensity of fluorescence; T: illumination time). HeLa cells (Sigma-Aldrich) are plated into a 96-well format transparent-bottomed black microplate at 20000 cells per well the day before the experiment. On the day of the test the cells are or are not treated with 0.1, 0.5 and 1 μM of staurosporine (Sigma-Aldrich) for 7 hours. The cells are then labelled for 20 minutes with 50 μl of a 10 μM solution of SYTO62 (Invitrogen) prepared in a buffer containing 25 mM Hepes, 140 mM NaCl, 1 mM EDTA and 0.1% bovine serum albumin (BSA), pH 7.4 (buffer A). The samples are placed under a fluorescence microscope (Leica DMIRB) at ×100 magnification then subjected to continuous illumination at 488 nm with a mercury lamp (HBO […]/2) for 40 seconds. The intensity of fluorescence emitted by the biosensor is then measured every second.

[3] = tested on: HeLa cells; assay: Kinetic profile of SYTO13 or SYTO15 fluorescence under continuous illumination, HeLa cells treated with apoptogenic agent; conditions: 1 μM, 7 hours
Protocol: HeLa cells were treated for 7 hours with (∘, Δ) or without ([…], ▴) 1 μM staurosporine. The cells were then labelled with a 10 μM solution of SYTO13 (Δ, ▴) or SYTO15 (∘, […]) then subjected to continuous illumination for 300 seconds. The intensity of fluorescence is then measured every 5 seconds. Each intensity value is then expressed as a percentage of the first fluorescence value measured. (IF: intensity of fluorescence; T: illumination time).
HeLa cells (Sigma-Aldrich) are plated into a 96-well format transparent-bottomed black microplate at 20000 cells per well the day before the experiment. On the day of the test the cells are or are not treated with 1 μM of staurosporine for 7 hours. The cells are then labelled for 20 minutes with 50 μl of a 10 μM solution of SYTO13 (Invitrogen) or SYTO15 (Invitrogen) prepared in buffer A.
The labelled cells are placed under a fluorescence reader of the Varioskan type (Thermo Electron Corporation) equipped with a Xenon Flash lamp. The samples labelled with SYTO13 and SYTO15 are then subjected for 300 seconds to continuous illumination at 488 nm and 516 nm respectively. The fluorescence intensities emitted by these biosensors are then measured every 5 seconds.

[4] = tested on: HepG2 cells; assay: Kinetic profile of SYTO13 fluorescence under continuous illumination, HepG2 cells treated with okadaic acid; conditions: 0.01, 0.031, 0.1, 0.31 and 1 μM, 24 hours, 2 μM final SYTO13, illumination 20 seconds at 488 nm
Protocol: The cells were then labelled with a solution of SYTO13 of 2 μM final concentration then subjected to continuous illumination for 20 seconds. The intensity of fluorescence is then measured every 0.4 seconds. Each intensity value is then expressed as a percentage of the first fluorescence value measured. (IF: intensity of fluorescence; T: illumination time).
HepG2 cells (ATCC) are plated into a 96-well format transparent-bottomed black microplate at 20000 cells per well two days before the experiment. The day before the test the cells are or are not treated with 75 μl of 0.01, 0.031, 0.1, 0.31 and 1 μM solutions of okadaic acid (Sigma-Aldrich). The cells are incubated for 24 hours.
On the day of the test, the cells are labelled for 30 minutes at 37° C. with 25 μl of an 8 μM solution of SYTO13 (Invitrogen) (i.e. 2 μM final) prepared in MEM culture medium (Invitrogen).
The samples are placed under a fluorescence microscope at ×100 magnification then subjected to continuous illumination at 488 nm with a mercury lamp for 20 seconds. The intensity of fluorescence emitted by the biosensor is then measured every 0.4 seconds.

Q: How did the “variation in fluorescence measured under illumination” value [1] turn out when `CC(=O)O[C@H]1C(=O)[C@@]2(C)[C@H]([C@H](OC(=O)c3ccccc3)[C@]3(O)C[C@H](OC(=O)[C@H](O)[C@@H](NC(=O)c4ccccc4)c4ccccc4)C(C)=C1C3(C)C)[C@]1(OC(C)=O)CO[C@@H]1C[C@@H]2O` [Taxol, Paclitaxel] was run?
A: Its value is “dose-dependent decrease in the variation in fluorescence”.

Q: Which “increase in the intensity of fluorescence measured under continuous illumination” value (shortened to “increase in the intensity”) ([2]; 0.1 μM) does the source give for `CN[C@@H]1C[C@H]2O[C@@](C)([C@@H]1OC)n1c3ccccc3c3c4c(c5c6ccccc6n2c5c31)C(=O)NC4` [staurosporine] here?
A: The value was “a weaker increase in fluorescence than in the untreated condition”.

Q: And the “increase in the intensity” value ([2]; 0.5 μM)?
A: Its value is “an increase in fluorescence is no longer measured”.

Q: And the “increase in the intensity” value ([2]; 1 μM)?
A: The value was “an increase in fluorescence is no longer measured”.

Q: And the “increase in the fluorescence measured under continuous illumination” value ([3]; 10 μM SYTO13, illumination 300 seconds at 488 nm)?
A: The value was “does not induce an increase in the fluorescence measured”.

Q: What about the “increase in the fluorescence measured under continuous illumination” value ([3]; 10 μM SYTO15, illumination 300 seconds at 516 nm) of the same compound?
A: The value was “does not induce an increase in the fluorescence measured”.

Q: `C=C1[C@@H](O)[C@@H]2O[C@]3(CC[C@H](/C=C/[C@@H](C)[C@@H]4CC(C)=C[C@@]5(O[C@H](C[C@@](C)(O)C(=O)O)CC[C@H]5O)O4)O3)CC[C@H]2O[C@@H]1[C@@H](O)C[C@H](C)[C@H]1O[C@@]2(CCCCO2)CC[C@H]1C` [okadaic acid] was tested. Which “variation in fluorescence measured under illumination” value [4] did it give?
A: The value was “dose-dependent decrease in the variation in fluorescence”.
